Experimental data: patent US20010019716A1 (priority 1996, published 2001)

Tests used:
[1] = system: HeLa cells; assay type: cell-based
[2] = system: HeLa cells; assay type: cell-based; remark: listed apart in the source
[3] = system: Mycobacterium tuberculosis; conditions: in vivo; cited from earlier work

Row | Compound | blocking of uptake of Mcep-coated beads [1] | concentration of peptide at which internalization of the beads was achieved (as low as) [2] [nM] | concentration sufficient to permit uptake of the spheres by Hela cells [2] | entry of coated beads into HeLa cells compared with whole Mcep (SEQ. ID. No. 4) [2] | uptake of coated 0.3 μm latex microspheres, transmission electron microscopy [2] | effective in preventing the disease [3]
1 | TKRRITPKDVIDVRSVTTEINT [Inv3] | competitively blocked | 25 | nanomolar concentration | as efficiently as the whole Mcep | uptake | –
2 | NNC(=O)c1ccncc1 [isoniazid] | – | – | – | – | – | about 90%
